Patent publication US11191754B2, “Inhibitors of nucleotidyl transferases and uses in herpes and hepatitis viral infections therefor” (Saint Louis University, priority 2015, dated 2021)
Where two headings read alike, the source gives them in different places.

Key:
[1] = MTT cytotoxicity assay in HepDES19 cells; format: cell-based; conditions: human
Protocol: 1.0×10^4 HepDES19 cells per well were seeded in 96-well plates and incubated in DMEM with 10% FBS plus 1% P/S, 1% non-essential amino acids, and 1% glutamine. Compounds were diluted in medium to the indicated concentrations plus 1% DMSO and added to cells 24 hours after plating, with each concentration tested in triplicate. Medium containing the compound was refreshed daily for the next two days. Thiazolyl blue tetrazolium bromide (MTT, Sigma-Aldrich) was added to 0.25 mg/mL, the cultures were incubated for 60 minutes, metabolites were solubilized in acidic isopropanol, and absorbance was read at 570 nm.

HBV = HBV replication assay in HepDES19 cells; format: cell-based, hepatitis B virus; parameters: key to Qualitative HBV replication inhibition assay: **: + DNA suppression <25% and − DNA suppression >60%; *: + DNA suppression <50% of − DNA suppression; conditions: for EC50: Hepatitis B virus, HBV replication, HepDES19 cells; for Qualitative HBV replication inhibition assay: plus- vs minus-polarity DNA strand suppression
Protocol: Inhibition of HBV replication was measured in HepDES19 cells as previously described in Cai, et al. (2014). Cells were seeded into 6-well plates and incubated in DMEM/F12, 10% fetal bovine serum (FBS), 1% penicillin/streptomycin (P/S) with 1 μg/mL tetracycline. Tetracycline was withdrawn after 24 hours. The test compound was applied to duplicate wells 48 hours later in medium containing a final DMSO concentration of 1%, and medium containing the compound was refreshed daily for the following two days. Cells were harvested and non-encapsidated nucleic acids were digested with micrococcal nuclease (New England Biolabs). HBV DNA was purified from capsids using QIAamp Cador Pathogen Mini Kit (Qiagen) with proteinase K incubation overnight at 37° C. TaqMan PCR was performed for 40 cycles at an annealing temperature of 60° C. Primers and probe (IDT Inc.) for the plus-polarity strand were: 5′[…]3′ (SEQ ID NO: 1); 5′[…]3′ (SEQ ID NO: 2); 5′/56-FAM/[…]/ZEN/[…]/3IABkFQ (SEQ ID NO: 3). Primers and probe for the minus-polarity strand were: 5′[…]3′ (SEQ ID NO: 4; 5′[…]3′ (SEQ ID NO: 5); 5′/56-FAM/[…]/ZEN/[…]/3IABkFQ (SEQ ID NO: 6).

HSV-2 = assay: Anti-HSV-2 replication assay (virus yield by plaque assay on Vero cells); format: cell-based, herpes simplex virus 2 (HSV-2); conditions: for HSV-2 Log10 suppression 5 μM / HSV-2 Log10 suppression 50 μM: Vero cells, moi 0.1, 24 h, relative to DMSO control
Protocol: (§1) Vero cells were maintained in Dulbecco's modified Eagle's medium (DMEM) containing 3% newborn calf serum, 3% bovine growth serum, 2 mM L-glutamine and 100 IU/mL penicillin and 0.1 mg/mL streptomycin (P/S). HSV-1 #6 and HSV-2 #1 are de-identified clinical isolates from the Saint Louis University Hospital. Stocks were prepared after a single passage in cell culture and were titered by standard plaque assay (Knipe and Spang, 1982). Wild-type HSV-2 used in FIG. 3 was laboratory strain 333. […] Virus stocks were grown and titered on Vero cells (Morrison and Knipe, 1996).
(§2) Compounds to be screened were diluted in PBS supplemented to contain 2% newborn calf serum and 1% glutamine, and added in 100 μL volume to confluent cell monolayers in 24-well cluster plates. Immediately thereafter HSV-1 and HSV-2, diluted in the supplemented PBS medium, were added to the wells in 50 μl volume such that the final concentration of compound was 50 μM, 5 μM and 1 μM and the multiplicity of infection was 0.1. The plates were incubated at 37° C. for 1 hour and then virus-containing inoculum was removed and the wells were washed once in PBS. Compound, diluted to 50 μM, 5 μM and 1 μM in DMEM supplemented to contain 2% newborn calf serum and 1% each penicillin/streptomycin, was added at 0.5 mL/well. Plates were incubated at 37° C. an additional 23 hours, and then the plates were visually inspected through a phase contrast microscope for cytopathic effect, and for toxic effect. The entire contents of each well were collected by scraping. Samples were frozen at −80° C., and then subsequently thawed, sonicated, and infectious virus titer was determined by standard plaque assay on Vero cell monolayers. Because the compounds were dissolved at 10 mM in 100% DMSO, equivalent dilutions of DMSO were added to additional wells as a control for effects of the diluent. Each experiment was repeated once. EC50 values were determined as above except that serial dilutions of the compound to be tested were prepared starting at 50 μM. The inhibitory values were calculated by non-linear curve-fitting in GraphPad Prism.

HSV-1 = assay: Anti-HSV-1 replication assay (virus yield by plaque assay on Vero cells); format: cell-based, herpes simplex virus 1 (HSV-1); conditions: for HSV-1 Log10 suppression 5 μM / HSV-1 Log10 suppression 50 μM: Vero cells, moi 0.1, 24 h, relative to DMSO control
Protocol: as §1, §2

[2] = Mouse liver microsome assay; format: in vitro ADME; conditions: for ER: extraction ratio; for ER / Non-P450 turn-over / half-life at 1 μM: mouse liver microsomes; for half-life at 1 μM / CLint scaled at 1 μM: 1 μM compound; for half-life at 1 μM: read-out: t ½; for CLint scaled at 1 μM: mouse
Protocol: Microsomal incubations are run at a final P450 concentration of 0.25 μM. […] The mixture is prewarmed for 5 min at 37° C. To initiate the reaction a 12 mM stock of NAPDH (1.2 mM, final concentration) is added to the warmed microsomal mixture and aliquots are removed at 0, 5, 10, 20 and 30 min. […] Samples are vortexed and spun down at 3200 rpm for 5 min. The supernant is transferred to 96-deep well plates and run on LC/MS/MS.

in vitro = format: cell-based; conditions: African green monkey
Protocol: Qualitative assessments of cytotoxicity were done visually by inspecting the cells in the primary screening assays. For the quantitative assays, cells were plated in 96-well plates at 1.0×10^4 per well. The next day the compounds were added at 0.78 to 100 μM in a final concentration of 1% (v/v) DMSO, and the cells were incubated for 24 hours under conditions identical to those employed for the viral replication inhibition assays. Mitochondrial toxicity was measured by incubating the cells with 0.25 mg/mL thiazolyl blue tetrazolium bromide (MTT, SigmaAldrich Chemical Co.), the cultures were incubated for 60 min, metabolites were solubilized in acidic isopropanol, and absorbance was read at 570 nm. CC50 values were calculated by non-linear curve fitting using GraphPad Prism.
A quantitative toxicity measurement was conducted. Toxicity was assessed by measuring release of intracellular proteases into the culture medium due to cellular lysis. Cells were plated in 96-well plates at 1.0×10^4 per well. The next day compound was added in concentrations ranging from 0.78 to 100 μM in a final concentration of 1% (v/v) DMSO. The cells were incubated for 24 hours under conditions identical to those employed for the viral replication inhibition assays, and then […] according to the manufacturer's instructions. […]

[3] = tested on: TK-deficient mutant of HSV-2 strain 333, ΔTK-; assay: Replication of TK-deficient HSV-2 mutant in Vero cells; format: cell-based, herpes simplex virus 2 (HSV-2); conditions: 5 μM, 24 h (FIG. 3)
Protocol: Vero cells were maintained in Dulbecco's modified Eagle's medium (DMEM) containing 3% newborn calf serum, 3% bovine growth serum, 2 mM L-glutamine and 100 IU/mL penicillin and 0.1 mg/mL streptomycin (P/S). HSV-1 #6 and HSV-2 #1 are de-identified clinical isolates from the Saint Louis University Hospital. Stocks were prepared after a single passage in cell culture and were titered by standard plaque assay (Knipe and Spang, 1982). Wild-type HSV-2 used in FIG. 3 was laboratory strain 333. The TK-deficient mutant of HSV-2 strain 333, ΔTK-, contains a 180-bp KpnI-KpnI deletion in the UL23 open reading frame that abrogates TK activity (McDermott, et al, 1984). ΔTK—was the generous gift of Jim Smiley. Virus stocks were grown and titered on Vero cells (Morrison and Knipe, 1996).
ACV is a nucleoside analog prodrug that must be phosphorylated by the viral thymidine kinase (TK) for it to become a substrate for the viral DNA polymerase (Elion, et al., 1977). HSV TK-deficient mutants are therefore insensitive to ACV. […] Vero cells were infected with a laboratory strain of HSV-2 and an engineered TK-deficient mutant of the same strain. […] ACV 5 μM inhibited wild-type HSV-2 replication 100-fold, but it had little effect on the TK-mutant (FIG. 3).

Row | SMILES | CC50 at 3 days [1] | EC50 (HBV) | Qualitative HBV replication inhibition assay (HBV) | HSV-2 Log10 suppression 5 μM (HSV-2) | HSV-2 Log10 suppression 50 μM (HSV-2) | HSV-1 Log10 suppression 5 μM (HSV-1) | HSV-1 Log10 suppression 50 μM (HSV-1) | other results
1 | CC(C)=CCc1ccc(=O)c(O)cc1C(C)C [#49] | 9 µM | – | – | – | – | – | – | –
2 | NCc1cccc(-c2ccc(Cc3cc(=O)n(O)c4ncccc34)cc2)c1 [Compound 153] | 10 µM | 4.1 µM | ** | – | – | – | – | –
3 | O=c1cc(NCc2ccccc2)c2cccnc2n1O [#151] | 15 µM | 4.7 µM | ** | – | – | – | – | suppression of HSV-2 replication in cell culture (HSV-2; 5 μM or less): strongly suppressed; suppression of HSV-1 replication in cell culture (HSV-1; 5 μM or less): strongly suppressed
4 | C/C(=N\c1ccccc1N)c1c(C)cc(=O)n(O)c1O [#208] | 15 µM | 0.69 µM | ** | 0.11 log10 | 0.26 log10 | 0.15 log10 | 2.63 log10 | ER [2]: <0.1; Non-P450 turn-over [2]: No; half-life at 1 μM [2]: > 2 h; CLint scaled at 1 μM ([2]; liver microsomes, read-out: CL ‘hep): 163 mL/min/kg
5 | Cc1cc(C2CCCCC2)n(O)c(=O)c1 [#41] | – | – | – | – | – | – | – | ER [2]: 0.16; Non-P450 turn-over [2]: No; half-life at 1 μM [2]: > 2 h; CLint scaled at 1 μM ([2]; microsomes, read-out: CL ‘hep): 14 mL/min/kg; CLint scaled at 1 μM ([2]; microsomes, read-out: CL’int): 17 mL/min/kg
6 | Cc1cc(COc2ccc(Oc3ccc(Cl)cc3)cc2)n(O)c(=O)c1 [#211] | 30 µM | 13 µM | ** | 0.04 log10 | 1.81 log10 | 0.08 log10 | 1.6 log10 | –
7 | Cc1ccc(O)c(=O)c(O)c1 [#210] | 71 µM | 1.5 µM | ** | – | – | – | – | –
8 | Nc1nc2c(ncn2COCCO)c(=O)[nH]1 [Acyclovir, acyclovir, reference compound] | – | – | – | 3.91 log10 | 5.25 log10 | 3.61 log10 | 5.39 log10 | CC50 at 24 h (in vitro): > 100 µM; HSV-2 Log10 suppression 5 μM (HSV-2; listed as acyclovir): 3.6 log10; inhibition of TK-mutant HSV-2 [3]: little effect; HSV-1 Log10 suppression 5 μM (HSV-1; listed as acyclovir): 4.22 log10
